# Measurements from article PMC8658787, “Screening of Potential Thrombin and Factor Xa Inhibitors from the Danshen–Chuanxiong Herbal Pair through a Spectrum–Effect Relationship Analysis” (Molecules, 2021).
# Target: factor Xa (FXa) (Homo sapiens, UniProt P00742)
# Experiment: FXa inhibitory activity assay (chromogenic substrate S-2765, absorbance at 405 nm)
# Assay type: biochemical
# Details: in vitro enzymatic activity assay
# Procedure: (§1) A stock solution of THR (125 U/mL) was prepared by dissolving 4.16 mg of THR in 1.0 mL of PBS. A stock solution of FXa (0.5 IU/mL) was prepared by dissolving 5.0 mg of FXa in 1.0 mL of PBS. Stock solutions of S-2238 (2 mg/mL) and S-2765 (2.5 mg/mL) were prepared in PBS. The DC extract samples (10 mg/mL) were prepared in a PBS buffer and diluted to 5.0 and 2.5 mg/mL as necessary.
# (§2) THR and FXa inhibitory activity assays were performed with an iMark™ Microplate Absorbance Reader (Bio-Rad Laboratories, Inc., Hercules, CA, USA). A DC extract solution of 50 μL and a 50 μL THR solution were mixed and incubated for 10 min at 37 °C. Subsequently, a 100 μL S-2238 (2 mg/mL) solution as the chromogenic substrate was added to start the reaction in the microplate reader. The absorbance was monitored at 405 nm every 30 s for 10 min, and each group was measured three times. […] Except for the enzyme solution and chromogenic substrate, the procedure for assessing the FXa inhibitory activity was exactly the same as for THR. The inhibition rate (%) of THR and FXa was calculated using Formula (1). (1) I(%)=[(dA/dt)blank−(dA/dt)sample]/(dA/dt)blank where I(%) represents the % of inhibition, and (dA/dt)blank and (dA/dt)sample represent the reaction rate of the control and experimental group, respectively. The results were expressed as the mean ± standard deviation (SD) of three experiments.
# Sequence of factor Xa (FXa) (P00742 235-488 limits assumed): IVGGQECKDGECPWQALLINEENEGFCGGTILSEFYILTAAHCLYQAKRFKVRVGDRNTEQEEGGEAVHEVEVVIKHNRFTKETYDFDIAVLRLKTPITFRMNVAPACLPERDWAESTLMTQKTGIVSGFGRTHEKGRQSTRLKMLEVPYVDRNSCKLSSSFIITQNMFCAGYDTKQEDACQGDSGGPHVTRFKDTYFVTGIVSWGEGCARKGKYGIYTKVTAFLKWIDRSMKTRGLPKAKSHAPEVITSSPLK
# Sequence of factor Xa (FXa) (P00742 41-179 partner limits assumed): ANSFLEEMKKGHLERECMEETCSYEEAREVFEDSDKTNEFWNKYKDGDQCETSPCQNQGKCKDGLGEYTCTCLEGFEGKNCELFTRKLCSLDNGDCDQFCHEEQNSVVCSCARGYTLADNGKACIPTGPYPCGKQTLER
row,SMILES,IC50
1,O=C(O)/C=C/c1ccc(O)c(O)c1 [Caffeic acid],3790 µM
2,COc1cc(/C=C/C(=O)O)ccc1O [Ferulic acid],2490 µM

# Other lines, results leading:
row,IC50,SMILES
1,113 µM,Cc1coc2c1C(=O)C(=O)c1c-2ccc2c(C)cccc12 [Tanshinone I]
2,138 µM,Cc1coc2c1C(=O)C(=O)c1c-2ccc2c1CCCC2(C)C [Tanshinone IIA]

# Target: T1, thrombin (THR) (Homo sapiens, UniProt P00734)
# T1 construct: purchased Sigma-Aldrich
# Experiment: THR inhibitory activity assay (chromogenic substrate S-2238, absorbance at 405 nm)
# Assay type: biochemical
# Details: in vitro enzymatic activity assay
# Procedure: as §1, §2
row,IC50,SMILES
1,185 µM,O=C(/C=C/c1ccc(O)c(O)c1)O[C@@H]1C[C@](O)(C(=O)O)C[C@@H](O)[C@H]1O [Chlorogenic acid]
2,1460 µM,CCC/C=C1\OC(=O)C2=C1CCC=C2 [Z-ligustilide]
